The record followed here is US8143003B2, “Method for detecting oral squamous-cell carcinoma” (Fujifilm Corporation, priority 2008, dated 2012).

Common to all, as to assay type: cell-based
Data set [1] deals with MTNR1A gene expression in oral squamous-cell carcinoma cell lines (TOSCa-50, ZA, and NA). Briefly: Recovery of MTNR1A gene expression by demethylation, examined by RT-PCR. Here is the method: (C) MTNR1A expression was recovered by a demethylation treatment performed on cells in which the gene was not expressed. The cells were treated using a 1 μM or 5 μM demethylating reagent 5-aza-dCyd for 5 days and/or using a deacetylation inhibitory agent TSA (100 ng/ml) for 12 hours. GAPDH was used as an internal control.
Specifically, single-stranded cDNA was synthesized from the RNA extracted from each cultured cell line using the SuperScript First-Strand Synthesis System (Invitrogen). Moreover, a glyceraldehyde-3-phosphate dehydrogenase (GAPDH) gene was used as a control.
In order to examine if the suppressed expression of the MTNR1A gene was due to DNA methylation, oral squamous-cell carcinoma cell lines (TOSCa-50, ZA, and NA) that had not expressed the MTNR1A gene were treated with a 1 μM or 5 μM demethylating reagent 5-aza-dCyd for 5 days and/or with a deacetylation inhibitory agent TSA (100 ng/ml) for 12 hours. RNAs were extracted from these cells, and MTNR1A gene expression was then examined by RT-PCR (FIG. 2c).

Data set [2] relates to DKFZP564J gene expression in cell lines with decreased expression. Briefly: DKFZP564J gene expression after treatment with 5-aza-dCyd and/or TSA. As to the method: (§1) (A) The expression status of a DKFZP564J gene and a CYP4V2 gene in cell lines in which the expression levels of the aforementioned genes had been decreased, which were treated with 5-aza-dCyd and/or TSA.
Data set [3] relates to CYP4V2 gene expression in cell lines with decreased expression. Briefly: CYP4V2 gene expression after treatment with 5-aza-dCyd and/or TSA. Here is the method: as §1

Entries after “also recorded” stand apart in the source; their conditions may differ.

`Nc1ncn([C@H]2C[C@H](O)[C@@H](CO)O2)c(=O)n1` [5-aza-dCyd, 5-azadeoxycytidine]: the “MTNR1A gene expression (RT-PCR)” value in data set [1] (1 μM or 5 μM 5-aza-dCyd for 5 days, NA cells not expressing MTNR1A) is listed as “recovers its gene expression; also recorded: possible to recover the expression level of the MTNR1A gene”. Moreover, the DKFZP564J gene expression entry in data set [2] is recorded as “gene expression was not recovered”. Moreover, in data set [3], the CYP4V2 gene expression entry is given as “gene expression was not recovered”.

Take `CC(/C=C/C(=O)NO)=C\[C@@H](C)C(=O)c1ccc(N(C)C)cc1` [TSA]: the “MTNR1A gene expression (RT-PCR)” value in data set [1] (TSA 100 ng/ml for 12 hours, NA cells) is “no differences in MTNR1A gene expression”.
